Structures are written as SMILES.

Holding throughout (format): biochemical
One experiment has as its target T1, human GST-CLK1 (129-end) (Homo sapiens, UniProt P49759).
T1 construct: purified human GST-CLK1 (129-end, Signalchem) enzyme; GST; purchased Signalchem
Nature of the experiment: GST-CLK1 enzyme inhibition, ADP-Glo kinase assay. The conditions noted are these: ATP 10 uM. As to the method:
(§1) In order to evaluate the inhibitory activity of the compounds according to the present invention on LRRK2, LRRK2 (G2019S), DYRK1, CLK1 and TTK kinases, the following experiment was performed.
(§2) Example compounds were reacted with the purified human GST-CLK1 (129-end, Signalchem) enzyme to evaluate the enzyme inhibitory ability as follows. As the reaction buffer, the composition of 40 mM Tris-HCl pH 7.4, 20 mM MgCl2, 0.5 mg/mL BSA, and 50 uM DTT was used, and the reaction of all test materials was performed on the reaction buffer. During the test, the human GST-CLK1 (129-end, 3 ng) enzyme, the purified ATP (10 uM), and a specific substrate solution were reacted at 25° C. for 1 hour, and then the enzyme activity was identified using the in vitro ADP-Glo™ kinase assay (promega). Luminescence was measured by reacting the enzyme activity reaction solution, an ADP-Glo reaction solution and the enzyme potency detection solution in a ratio of 2:2:1. The degree of inhibition of enzyme activity according to the treatment concentrations of the respective compounds was calculated based on the fluorescence of the enzyme activity of a solvent control group that was not treated with the compound, where the concentration of each compound to inhibit enzyme activity inhibition by 50% was determined as an IC50 (nM) value. The IC50 of each compound was determined in triplicate data sets and obtained using Prism (version 7.01, GraphPad) software.
(§3) In the table below, the following designations were used for the evaluation of enzyme inhibitory ability.
(In general: ADP-Glo first removes unused ATP, then detects ADP through luciferase.)

Another experiment has as its target LRRK2 (G2019S) (Homo sapiens, UniProt Q5S007, G2019S). Briefly: LRRK2 G2019S enzyme inhibition, ADP-Glo kinase assay. The arrangement: purchased SignalChem L10-12GG. As to the method: as §1
Example compounds were reacted with the purified human LRRK2 G2019S (L10-12GG, SignalChem) enzyme to evaluate the enzyme inhibitory ability as follows. The reaction buffer was used as the composition of 40 mM Tris-HCl pH7.4, 20 mM MgCl2, 0.5 mg/ml BSA and 50 μM DTT, and the reaction of all test materials was performed on the reaction buffer. The compound was diluted with 10 mM DMSO stock in 12 steps by a serial dilution method, and the enzyme activity was measured at the final compound concentrations of 50, 10, 2, 0.4, 0.08, 0.016, 0.0032, 0.00064, 0.000128, 0.0000256, 0.00000512 and 0.000001024 μM. In the test, the human LRRK2 G2019S (16 ng) enzyme was reacted with the purified ATP (25 μM) and an enzyme substrate (0.2 μg) at 25° C. for 2 hours, and then the enzyme activity was identified using the in vitro ADP-Glo™ kinase assay (promega). The enzyme activity reaction liquid, an ADP-Glo reaction liquid and an enzyme potency detection solution were reacted in a ratio of 2:2:1, and the degree of inhibition of enzyme activity was measured by Luminescence. The degree of inhibition of enzyme activity according to the treatment concentrations of the respective compounds was calculated based on the fluorescence of the enzyme activity of a solvent control group that was not treated with the compound, where the concentration of each compound to inhibit enzyme activity inhibition by 50% was determined as an IC50 (nM) value and obtained using Prism (Version 5.01, GraphPad) software.
as §3

The target in experiment [1] is T2, human GST-DYRK1A (full length) (Homo sapiens, UniProt Q13627).
T2 construct: purified human GST-DYRK1A (full length, Thermo scientifics) enzyme; GST; purchased Thermo scientifics
Briefly: GST-DYRK1A enzyme inhibition, ADP-Glo kinase assay. The conditions noted are these: read-out: DYRK1 IC50. As to the method:
as §1
as §2, with “GST-DYRK1A (full length, Thermo scientifics)” for “GST-CLK1 (129-end, Signalchem)”, “GST-DYRK1A (full length, 10” for “GST-CLK1 (129-end, 3”
as §3

LRRK2 (G2019S), sequence (Q5S007 970-2527 G2019S limits assumed): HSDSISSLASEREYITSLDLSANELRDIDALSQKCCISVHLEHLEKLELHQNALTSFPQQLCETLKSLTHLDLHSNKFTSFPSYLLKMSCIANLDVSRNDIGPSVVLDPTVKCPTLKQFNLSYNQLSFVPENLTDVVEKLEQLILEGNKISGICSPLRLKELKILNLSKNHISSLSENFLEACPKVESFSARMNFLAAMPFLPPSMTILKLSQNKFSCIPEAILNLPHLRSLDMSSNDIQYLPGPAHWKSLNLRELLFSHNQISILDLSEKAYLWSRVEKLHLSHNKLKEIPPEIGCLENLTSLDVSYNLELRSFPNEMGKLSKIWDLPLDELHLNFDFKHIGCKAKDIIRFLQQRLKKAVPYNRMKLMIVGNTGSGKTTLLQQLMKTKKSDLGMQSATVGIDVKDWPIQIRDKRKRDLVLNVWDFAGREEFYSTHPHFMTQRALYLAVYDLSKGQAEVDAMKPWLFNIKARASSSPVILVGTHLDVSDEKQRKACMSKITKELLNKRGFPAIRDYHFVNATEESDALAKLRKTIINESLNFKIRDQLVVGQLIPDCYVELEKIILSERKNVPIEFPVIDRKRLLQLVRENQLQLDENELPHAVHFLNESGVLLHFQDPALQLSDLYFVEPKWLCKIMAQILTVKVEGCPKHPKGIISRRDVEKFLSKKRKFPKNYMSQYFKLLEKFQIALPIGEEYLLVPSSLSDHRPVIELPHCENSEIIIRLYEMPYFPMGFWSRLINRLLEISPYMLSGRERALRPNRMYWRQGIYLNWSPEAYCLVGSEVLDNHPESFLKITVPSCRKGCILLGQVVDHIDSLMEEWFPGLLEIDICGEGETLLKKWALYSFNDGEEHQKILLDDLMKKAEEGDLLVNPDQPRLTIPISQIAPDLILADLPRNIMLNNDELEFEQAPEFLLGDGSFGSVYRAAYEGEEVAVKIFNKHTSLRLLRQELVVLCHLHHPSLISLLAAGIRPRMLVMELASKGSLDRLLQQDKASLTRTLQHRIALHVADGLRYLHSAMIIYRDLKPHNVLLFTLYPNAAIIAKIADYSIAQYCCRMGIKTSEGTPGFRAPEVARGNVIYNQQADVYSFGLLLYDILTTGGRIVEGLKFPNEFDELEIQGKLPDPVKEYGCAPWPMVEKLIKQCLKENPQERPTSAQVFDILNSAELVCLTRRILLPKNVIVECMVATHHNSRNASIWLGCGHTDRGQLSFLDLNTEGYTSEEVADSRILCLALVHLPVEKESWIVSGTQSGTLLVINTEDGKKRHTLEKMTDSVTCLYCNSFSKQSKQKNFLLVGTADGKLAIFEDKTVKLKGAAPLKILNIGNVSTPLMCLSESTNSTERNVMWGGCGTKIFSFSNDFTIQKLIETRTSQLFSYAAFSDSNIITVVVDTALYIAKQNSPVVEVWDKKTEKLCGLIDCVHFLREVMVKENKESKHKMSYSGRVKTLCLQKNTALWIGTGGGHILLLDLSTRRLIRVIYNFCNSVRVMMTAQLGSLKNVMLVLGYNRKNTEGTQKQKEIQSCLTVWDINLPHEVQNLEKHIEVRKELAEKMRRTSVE
T1 sequence (P49759 129-484 limits assumed): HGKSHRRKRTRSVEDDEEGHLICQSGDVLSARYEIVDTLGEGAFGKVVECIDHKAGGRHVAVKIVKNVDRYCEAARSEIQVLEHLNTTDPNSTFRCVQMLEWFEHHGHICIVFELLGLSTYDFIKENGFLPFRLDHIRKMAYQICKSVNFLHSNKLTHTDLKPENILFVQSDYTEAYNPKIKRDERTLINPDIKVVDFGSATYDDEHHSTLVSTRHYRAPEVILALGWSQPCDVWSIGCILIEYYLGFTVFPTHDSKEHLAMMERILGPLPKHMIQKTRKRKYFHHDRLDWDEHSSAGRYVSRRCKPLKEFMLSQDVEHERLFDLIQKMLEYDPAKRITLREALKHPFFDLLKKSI

Consider `COc1cc(S(C)(=O)=O)ccc1Nc1cc(NCCS(C)(=O)=O)c2cc[nH]c2n1` [Example 31, N^6-(2-methoxy-4-(methylsulfonyl)phenyl)-N^4-(2-(methylsulfonyl)ethyl)-1H-pyrrolo[2,3-b]pyridine-4,6-diamine], for which the IC50 (on human GST-CLK1 (129-end); at LRRK2 (G2019S); in experiment [1]) was 301 to 1000 nM throughout.

With `CCNc1cc(Nc2ccc(S(=O)(=O)N3CCC(N4CCOCC4)CC3)cc2OC)nc2[nH]ccc12` [Example 19, N^4-ethyl-N^6-(2-methoxy-4-((4-morpholinopiperidin-1-yl)sulfonyl)phenyl)-1H-pyrrolo[2,3-b]pyridine-4,6-diamine], the IC50 (usually the point on the concentration scale where inhibition reaches its midpoint) was 301 to 1000 nM against human GST-CLK1 (129-end), less than 100 nM at LRRK2 (G2019S) and 301 to 1000 nM in experiment [1].

On to `COc1cc(S(=O)(=O)N2CCOCC2)ccc1Nc1cc(NC2CC2)c2cc[nH]c2n1` [Example 15, N^4-cyclopropyl-N^6-(2-methoxy-4-(morpholinosulfonyl)phenyl)-1H-pyrrolo[2,3-b]pyridine-4,6-diamine], for which the IC50 on human GST-CLK1 (129-end) is 301 to 1000 nM; against LRRK2 (G2019S) it was less than 100 nM; in experiment [1] it was 301 to 1000 nM.

On to `COc1cc(S(C)(=O)=O)ccc1Nc1cc(NC2CC2)c2cc[nH]c2n1` [Example 1, N^4-cyclopropyl-N^6-(2-methoxy-4-(methylsulfonyl)phenyl)-1H-pyrrolo[2,3-b]pyridine-4,6-diamine], for which the IC50 (on human GST-CLK1 (129-end); against LRRK2 (G2019S); in experiment [1]) was 301 to 1000 nM in each case.

Turning to `CCCNc1cc(Nc2ccc(S(=O)(=O)N3CCOCC3)cc2OC)nc2[nH]ccc12` [Example 12, N^6-(2-methoxy-4-(morpholinosulfonyl)phenyl)-N^4-propyl-1H-pyrrolo[2,3-b]pyridine-4,6-diamine 2,2,2-trifluoroacetate], the IC50 on human GST-CLK1 (129-end) is 301 to 1000 nM; against LRRK2 (G2019S), less than 100 nM; in experiment [1], 301 to 1000 nM.

For the molecule `COc1cc(S(C)(=O)=O)ccc1Nc1cc(NCCS(C)(=O)=O)c2c(Cl)c[nH]c2n1` [Example 88, 3-chloro-N^6-(2-methoxy-4-(methylsulfonyl)phenyl)-N^4-(2-(methylsulfonyl)ethyl)-1H-pyrrolo[2,3-b]pyridine-4,6-diamine], the IC50 (against human GST-CLK1 (129-end); at LRRK2 (G2019S); in experiment [1]) was 301 to 1000 nM each time.

For the molecule `COc1cc(S(=O)(=O)N2CCC(N3CCOCC3)CC2)ccc1Nc1cc(NC2CC2)c2cc[nH]c2n1` [Example 22, N^4-cyclopropyl-N^6-(2-methoxy-4-((4-morpholinopiperidin-1-yl)sulfonyl)phenyl)-1H-pyrrolo[2,3-b]pyridine-4,6-diamine], the figures for the IC50 (against human GST-CLK1 (129-end); against LRRK2 (G2019S); in experiment [1]) were 301 to 1000 nM, less than 100 nM and 301 to 1000 nM, respectively.

`CNc1cc(Nc2ccc(S(=O)(=O)N3CCC(N4CCOCC4)CC3)cc2OC)nc2[nH]cc(Cl)c12` [Example 73, 3-chloro-N^6-(2-methoxy-4-((morpholinopiperidin-1-yl)sulfonyl)phenyl)-N^4-methyl-1H-pyrrolo[2,3-b]pyridine-4,6-diamine]: the figures for the IC50 (on human GST-CLK1 (129-end); at LRRK2 (G2019S); in experiment [1]) were 301 to 1000 nM, less than 100 nM and 301 to 1000 nM, respectively.

On to `CC(C)Nc1cc(Nc2ccc(C(=O)N3CCOCC3)c3c2OCCO3)nc2[nH]cc(Cl)c12` [Example 59, (8-((3-chloro-4-(isopropylamino)-1H-pyrrolo[2,3-b]pyridin-6-yl)amino)-2,3-dihydrobenzo [b] [1,4]dioxin-5-yl)(morpholino) methanone], for which the IC50 (against human GST-CLK1 (129-end); on LRRK2 (G2019S); in experiment [1]) was 301 to 1000 nM throughout.

As to `O=C(c1ccc(Nc2cc(NC3CCCCC3)c3cc[nH]c3n2)c2c1OCCO2)N1CCOCC1` [Example 8, (8-((4-(cyclohexylamino)-1H-pyrrolo[2,3-b]pyridin-6-yl)amino)-2,3-dihydrobenzo[b] [1,4]dioxin-5-yl)(morpholino) methanone], the IC50 was in the range of 301 to 1000 nM at human GST-CLK1 (129-end), 101 to 300 nM against LRRK2 (G2019S) and 301 to 1000 nM in experiment [1].

Regarding `CC(C)CNc1cc(Nc2ccc(C(=O)N3CCOCC3)c3c2OCCO3)nc2[nH]ccc12` [Example 6, (8-((4-(isobutylamino)-1H-pyrrolo[2,3-b]pyridin-6-yl)amino)-2,3-dihydrobenzo [b] [1,4]dioxin-5-yl)(morpholino) methanone], the IC50 against human GST-CLK1 (129-end) is 301 to 1000 nM; against LRRK2 (G2019S), less than 100 nM; in experiment [1], 301 to 1000 nM.

Take `O=C(c1ccc(Nc2cc(NC3CC3)c3c(Cl)c[nH]c3n2)c2c1OCCO2)N1CCOCC1` [Example 60, (8-((3-chloro-4-(cyclopropylamino)-1H-pyrrolo[2,3-b]pyridin-6-yl)amino)-2,3-dihydrobenzo [b] [1,4]dioxin-5-yl)(morpholino) methanone]: the results for the IC50 (against human GST-CLK1 (129-end); against LRRK2 (G2019S); in experiment [1]) were 301 to 1000 nM, less than 100 nM and 301 to 1000 nM, respectively.

For the molecule `CCNc1cc(Nc2ccc(C(=O)N3C[C@@H](C)O[C@@H](C)C3)c3c2OCC3)nc2[nH]cc(C(F)(F)F)c12` [Example 258, ((2S,6R)-2,6-dimethylmorpholino) (7-((4-(ethylamino)-3-(trifluoromethyl)-1H-pyrrolo[2,3-b]pyridin-6-yl)amino)-2,3-dihydrobenzofuran-4-yl)methanone], the values for the IC50 (at human GST-CLK1 (129-end); against LRRK2 (G2019S); in experiment [1]) were 101 to 300 nM, 301 to 1000 nM and less than 100 nM, respectively.

As to `CC(C)Nc1cc(Nc2ccc(C(=O)N3CCOCC3)c3c2OCCO3)nc2[nH]ccc12` [Example 5, (8-((4-(isopropylamino)-1H-pyrrolo[2,3-b]pyridin-6-yl)amino)-2,3-dihydrobenzo[b] [1,4]dioxin-5-yl)(morpholino) methanone], the IC50 against human GST-CLK1 (129-end) is 301 to 1000 nM; against LRRK2 (G2019S), less than 100 nM; in experiment [1], 301 to 1000 nM.

For the molecule `COc1cc(S(C)(=O)=O)ccc1Nc1cc(NC2CCCCC2)c2cc[nH]c2n1` [Example 30, N^4-cyclohexyl-N^6-(2-methoxy-4-(methylsulfonyl)phenyl)-1H-pyrrolo[2,3-b]pyridine-4,6-diamine], the IC50 (against human GST-CLK1 (129-end); against LRRK2 (G2019S); in experiment [1]) was 301 to 1000 nM in each case.

Consider `CCCNc1cc(Nc2ccc(S(=O)(=O)N3CCC(N4CCOCC4)CC3)cc2OC)nc2[nH]ccc12` [Example 20, N^6-(2-methoxy-4-((4-morpholinopiperidin-1-yl)sulfonyl)phenyl)-N^4-propyl-1H-pyrrolo[2,3-b]pyridine-4,6-diamine], for which the figures for the IC50 (at human GST-CLK1 (129-end); against LRRK2 (G2019S); in experiment [1]) were 301 to 1000 nM, less than 100 nM and 301 to 1000 nM, respectively.

Consider `COc1cc(S(=O)(=O)N2CCC(N3CCOCC3)CC2)ccc1Nc1cc(NC(C)C)c2c(Cl)c[nH]c2n1` [Example 75, 3-chloro-N^4-isopropyl-N^6-(2-methoxy-4-((morpholinopiperidin-1-yl)sulfonyl)phenyl)-1H-pyrrolo[2,3-b]pyridine-4,6-diamine], for which the results for the IC50 (on human GST-CLK1 (129-end); at LRRK2 (G2019S); in experiment [1]) were 301 to 1000 nM, less than 100 nM and 301 to 1000 nM, respectively.

The values above are taken from patent US12240844B2 (Voronoi, Inc., priority 2019, dated 2025).
